Measurements from PMC7526550, “Allosteric folding correction of F508del and rare CFTR mutants by elexacaftor-tezacaftor-ivacaftor (Trikafta) combination” (JCI Insight, 2020).

Columns and labels:
[1] = target: CFTR (F508del-NBD1-1S) (Homo sapiens, UniProt P13569, F494N/DEL508-508); parameters: SPR (Biacore T200) steady-state affinity of correctors to immobilized biotinylated CFTR NBD1; conditions: binder; read-out: ΔF508-NBD1-1S Mean KD
Method: (§1) As described in our previous publication ([21]), binding interactions between biotinylated NBD1 constructs (WT-1S-, F508del-1S-, F508del-3S-NBD1; ~30 kDa each) and corrector compounds were examined with a BIACORE T200 system (GE Healthcare Bio-Sciences AB; Control software v2.0 and Evaluation software v1.0). Briefly, neutravidin (2 mg/mL in water, diluted to 50 μg/mL in 10 mM sodium acetate, pH 5.0; Thermo Fisher Scientific) was amine-coupled to S-series CM5 sensors (~12,000 RU per flow cell) at 25°C using filtered (0.2 μm) and degassed HBS-EP buffer (10 mM HEPES, pH 7.4; 150 mM NaCl; 3 mM EDTA; 0.005% [v/v] Tween-20). After subsequent cooling to 4°C (sample chamber and sensor) and equilibration in PBS running buffer (1× PBS pH 7.4 containing 10% [v/v] glycerol, 2 mM MgCl2, 1 mM ATP, 0.05% [v/v] Tween-20), reference (neutravidin only) and active surfaces (100 μg/mL NBD1 constructs in PBS buffer; capture 5000–8000 RU each) were equilibrated in PBS buffer containing 2% (v/v) DMSO at 10 μL/min. The corrector compounds were titrated over reference and NBD1-immobilized surfaces at 25–50 μL/min (1–2 minutes association plus 2–5 minutes dissociation; 2-fold dilution series for all compounds). Between titration series, the surfaces were regenerated at 50 μL/min using two 30-second pulses of solution I (PBS-DMSO buffer containing 1.0 M NaCl and 0.05% [v/v] Empigen [Anatrace]). […]

[2] = target: CFTR (WT-NBD1-1S) (Homo sapiens, UniProt P13569, F494N); experiment: biochemical; parameters: SPR (Biacore T200) steady-state affinity of correctors to immobilized biotinylated CFTR NBD1
Sequence of CFTR (WT-NBD1-1S) (P13569 389-678 F494N limits assumed): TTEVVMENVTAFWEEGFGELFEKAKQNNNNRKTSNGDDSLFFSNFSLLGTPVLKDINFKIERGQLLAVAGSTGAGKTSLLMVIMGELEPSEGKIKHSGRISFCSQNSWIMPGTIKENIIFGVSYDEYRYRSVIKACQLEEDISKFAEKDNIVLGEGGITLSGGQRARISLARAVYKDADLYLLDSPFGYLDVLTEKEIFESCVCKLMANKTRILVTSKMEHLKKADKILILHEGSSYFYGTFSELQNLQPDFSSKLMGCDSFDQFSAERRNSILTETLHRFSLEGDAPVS
Method: as §1

Sequence of CFTR (F508del-NBD1-1S) (P13569 with tags, fused parts or gaps F494N/DEL508-508 limits assumed): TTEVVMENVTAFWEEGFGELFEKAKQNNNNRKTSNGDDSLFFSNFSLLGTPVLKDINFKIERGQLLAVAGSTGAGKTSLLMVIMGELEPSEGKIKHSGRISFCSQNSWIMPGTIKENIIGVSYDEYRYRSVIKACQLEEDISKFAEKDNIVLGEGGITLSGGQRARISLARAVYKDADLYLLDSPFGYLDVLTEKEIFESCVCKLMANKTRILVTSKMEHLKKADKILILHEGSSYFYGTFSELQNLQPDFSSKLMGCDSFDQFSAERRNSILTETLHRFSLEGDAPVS

Kd [1] [µM] | Kd [2] [µM] | SMILES
> 200 | > 200 | CC(C)(CO)c1cc2cc(NC(=O)C3(c4ccc5c(c4)OC(F)(F)O5)CC3)c(F)cc2n1C[C@@H](O)CO [VX-661, tezacaftor]
82 | 76 | Cc1nn(C)cc1S(=O)(=O)NC(=O)c1ccc(-n2ccc(OCC(C)(C)C(F)(F)F)n2)nc1N1C[C@@H](C)CC1(C)C [compound 20, VX-445]
